Common to all, as to experiment: AMPD Enzymatic Activity Assay
What all share (settings): pH 7.4

For one assay, the target named is T1, AMP deaminase 3 (Rattus norvegicus, UniProt O09178).
T1 sequence (O09178 whole entry): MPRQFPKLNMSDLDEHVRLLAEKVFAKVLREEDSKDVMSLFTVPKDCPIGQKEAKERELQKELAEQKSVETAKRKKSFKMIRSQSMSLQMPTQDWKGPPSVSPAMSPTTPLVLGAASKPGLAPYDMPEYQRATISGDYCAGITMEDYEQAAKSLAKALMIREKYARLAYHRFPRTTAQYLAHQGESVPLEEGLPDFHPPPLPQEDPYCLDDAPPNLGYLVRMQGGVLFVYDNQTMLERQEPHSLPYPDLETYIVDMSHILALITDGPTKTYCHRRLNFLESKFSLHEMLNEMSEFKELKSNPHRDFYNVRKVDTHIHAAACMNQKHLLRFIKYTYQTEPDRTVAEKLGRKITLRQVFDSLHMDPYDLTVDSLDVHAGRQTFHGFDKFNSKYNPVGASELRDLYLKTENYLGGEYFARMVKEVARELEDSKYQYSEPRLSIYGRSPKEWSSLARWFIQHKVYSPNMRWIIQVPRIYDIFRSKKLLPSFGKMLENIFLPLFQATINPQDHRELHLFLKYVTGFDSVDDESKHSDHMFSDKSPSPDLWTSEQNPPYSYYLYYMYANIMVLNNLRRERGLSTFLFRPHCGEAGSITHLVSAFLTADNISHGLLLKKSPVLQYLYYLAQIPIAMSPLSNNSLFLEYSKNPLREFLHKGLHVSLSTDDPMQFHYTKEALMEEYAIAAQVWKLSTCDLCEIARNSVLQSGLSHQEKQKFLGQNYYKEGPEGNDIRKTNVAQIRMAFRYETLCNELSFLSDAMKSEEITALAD
How it is done: (§1) AMPD1 was added to buffer A (50 mM HEPES, 150 mM KCl, 5 mM MgCl2, and 0.5 mMglutathione [pH 7.4]) to a concentration of 10 nM. A substrate mix consistingof 2mMNADPH, 6mMa-ketoglutarate, 8mMAMP, and 15 U GDH was prepared in buffer A. Substrate mix ([…]) was added to the plate, followed by centrifugation and incubation for 1 hr. Detection was by absorbance at 340 nm following the conversion of NADPH to NADP+. Recombinant AMPD enzyme activity assays were performed in a 384-well format using the same conditions as described above, except the assay volume was […] and the AMP concentration for the AMPD2 assay was 8 mM. Different AMPD enzyme concentrations were used to have linear reactions: hAMPD1 (4 nM), hAMPD2 (38 nM), hAMPD3 (1 nM), rAMPD1 (116 nM), rAMPD2 (53 nM), rAMPD3 (31 nM), and mAMPD1 (816 nM).

In the next assay the target is T2, AMP deaminase 1 (Homo sapiens, UniProt P23109).
T2 sequence (P23109 whole entry): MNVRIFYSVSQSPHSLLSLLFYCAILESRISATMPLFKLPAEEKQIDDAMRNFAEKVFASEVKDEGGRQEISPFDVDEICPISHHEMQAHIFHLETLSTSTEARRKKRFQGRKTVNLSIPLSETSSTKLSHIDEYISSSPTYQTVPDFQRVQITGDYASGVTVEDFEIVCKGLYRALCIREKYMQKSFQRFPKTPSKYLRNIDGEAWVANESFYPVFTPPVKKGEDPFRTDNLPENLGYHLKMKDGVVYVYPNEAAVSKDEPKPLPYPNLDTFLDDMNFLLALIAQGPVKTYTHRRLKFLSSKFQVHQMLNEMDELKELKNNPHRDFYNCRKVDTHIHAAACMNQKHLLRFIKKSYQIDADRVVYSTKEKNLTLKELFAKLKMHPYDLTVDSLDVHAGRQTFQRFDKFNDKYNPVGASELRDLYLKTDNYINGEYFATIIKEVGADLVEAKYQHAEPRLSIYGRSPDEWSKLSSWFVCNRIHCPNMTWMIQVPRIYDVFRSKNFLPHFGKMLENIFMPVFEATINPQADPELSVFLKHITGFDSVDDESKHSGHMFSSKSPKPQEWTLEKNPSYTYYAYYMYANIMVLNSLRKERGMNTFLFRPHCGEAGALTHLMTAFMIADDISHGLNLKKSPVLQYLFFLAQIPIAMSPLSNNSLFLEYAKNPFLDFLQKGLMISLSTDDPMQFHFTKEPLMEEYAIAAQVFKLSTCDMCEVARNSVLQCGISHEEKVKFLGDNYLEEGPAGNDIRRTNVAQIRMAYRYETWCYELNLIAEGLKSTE
How it is done: as §1

Another assay deals with T3, AMP deaminase 2 (Homo sapiens, UniProt Q01433).
T3 sequence (Q01433 whole entry): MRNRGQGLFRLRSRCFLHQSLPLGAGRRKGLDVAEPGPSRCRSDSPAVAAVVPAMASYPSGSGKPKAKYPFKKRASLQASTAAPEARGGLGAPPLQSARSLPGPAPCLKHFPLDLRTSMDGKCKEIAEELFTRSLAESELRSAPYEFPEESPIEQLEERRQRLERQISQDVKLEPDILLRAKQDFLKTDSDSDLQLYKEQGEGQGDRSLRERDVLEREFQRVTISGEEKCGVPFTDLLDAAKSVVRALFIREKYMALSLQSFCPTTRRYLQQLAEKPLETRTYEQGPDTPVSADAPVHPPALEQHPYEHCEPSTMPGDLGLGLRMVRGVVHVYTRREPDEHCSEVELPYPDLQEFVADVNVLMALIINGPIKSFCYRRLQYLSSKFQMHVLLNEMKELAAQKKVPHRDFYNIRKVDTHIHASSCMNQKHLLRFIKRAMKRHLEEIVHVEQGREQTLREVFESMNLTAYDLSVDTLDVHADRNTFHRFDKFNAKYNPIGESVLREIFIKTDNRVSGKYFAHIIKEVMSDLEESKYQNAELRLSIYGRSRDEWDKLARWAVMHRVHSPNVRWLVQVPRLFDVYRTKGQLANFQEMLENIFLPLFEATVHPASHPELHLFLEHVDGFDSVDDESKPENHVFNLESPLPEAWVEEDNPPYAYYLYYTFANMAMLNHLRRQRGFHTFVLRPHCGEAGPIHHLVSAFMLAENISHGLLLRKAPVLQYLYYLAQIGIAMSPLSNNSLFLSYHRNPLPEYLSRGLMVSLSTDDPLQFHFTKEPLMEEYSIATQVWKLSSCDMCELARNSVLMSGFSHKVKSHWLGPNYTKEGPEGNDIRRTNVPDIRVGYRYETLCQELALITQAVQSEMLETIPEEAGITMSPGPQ
The procedure:
as §1

The term IC50 denotes the concentration at which inhibition is half-maximal. The low end stands for inhibition by little substance, the high end for a need for much substance. Take `C[C@@H](NCc1ccc(-c2ccc(C(=O)O)cn2)cc1)c1cccc2ccncc12` [6-[4-({[(1R)-1-(isoquinolin-8-yl)ethyl]amino}methyl)phenyl]pyridine-3-carboxylic acid (Compound 2)]: the IC50 at AMP deaminase 3 is 44 µM; against AMP deaminase 1 it was 9.2 µM; at AMP deaminase 2, 32 µM.

For `C[C@H](NCc1ccc(-c2ccc(C(=O)O)cn2)cc1)c1cccc2ccncc12` [6-[4-({[(1S)-1-(isoquinolin-8-yl)ethyl]amino}methyl)phenyl]pyridine-3-carboxylic acid (Compound 3)], the concentration for half-maximal inhibition (IC50) on AMP deaminase 3 came to 0.4 µM; on AMP deaminase 1 it was 0.038 µM; on AMP deaminase 2, 0.016 µM.

(Values after BindingDB's records for doi:10.1016/j.chembiol.2014.09.011 (Astrazeneca R&D, 2014).)
